In ChEMBL document CHEMBL1201862, “PubChem BioAssay data set” (2004):
Activity calls are given as the source filed them.

Experiments:
[1] = target: T1, Protein RecA (Mycobacterium tuberculosis, UniProt P9WHJ3); experiment: Fluorescence Cell-Free Homogeneous Dose Retest to Identify Inhibitors of RecA-Intein Splicing Activity. [Related pubchem assays (depositor defined):AID2097, AID2223, AID489010, AID492950]; type: functional
T1 sequence (P9WHJ3 whole entry): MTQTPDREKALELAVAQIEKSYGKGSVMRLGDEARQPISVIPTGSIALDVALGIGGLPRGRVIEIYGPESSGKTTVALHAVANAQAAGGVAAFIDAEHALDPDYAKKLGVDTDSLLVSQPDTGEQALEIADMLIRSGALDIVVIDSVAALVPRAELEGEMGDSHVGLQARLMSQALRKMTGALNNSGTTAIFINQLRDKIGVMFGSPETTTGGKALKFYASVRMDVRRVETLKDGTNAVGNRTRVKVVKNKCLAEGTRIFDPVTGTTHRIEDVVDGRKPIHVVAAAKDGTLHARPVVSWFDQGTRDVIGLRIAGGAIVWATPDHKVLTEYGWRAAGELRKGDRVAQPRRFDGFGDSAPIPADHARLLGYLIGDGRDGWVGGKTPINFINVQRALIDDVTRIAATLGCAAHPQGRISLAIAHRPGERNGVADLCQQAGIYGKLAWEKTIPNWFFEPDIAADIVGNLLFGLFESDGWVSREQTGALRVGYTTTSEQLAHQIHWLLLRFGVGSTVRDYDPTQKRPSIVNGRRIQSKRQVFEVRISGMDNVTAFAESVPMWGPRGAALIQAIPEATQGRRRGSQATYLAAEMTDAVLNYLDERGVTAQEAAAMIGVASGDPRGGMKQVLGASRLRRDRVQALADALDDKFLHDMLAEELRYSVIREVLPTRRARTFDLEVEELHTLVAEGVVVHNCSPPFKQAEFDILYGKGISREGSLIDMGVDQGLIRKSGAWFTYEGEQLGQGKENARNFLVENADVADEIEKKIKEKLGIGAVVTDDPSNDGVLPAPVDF

[2] = target: T2, Apoptotic protease-activating factor 1 (Homo sapiens, UniProt O14727); type: functional
T2 sequence (O14727 whole entry): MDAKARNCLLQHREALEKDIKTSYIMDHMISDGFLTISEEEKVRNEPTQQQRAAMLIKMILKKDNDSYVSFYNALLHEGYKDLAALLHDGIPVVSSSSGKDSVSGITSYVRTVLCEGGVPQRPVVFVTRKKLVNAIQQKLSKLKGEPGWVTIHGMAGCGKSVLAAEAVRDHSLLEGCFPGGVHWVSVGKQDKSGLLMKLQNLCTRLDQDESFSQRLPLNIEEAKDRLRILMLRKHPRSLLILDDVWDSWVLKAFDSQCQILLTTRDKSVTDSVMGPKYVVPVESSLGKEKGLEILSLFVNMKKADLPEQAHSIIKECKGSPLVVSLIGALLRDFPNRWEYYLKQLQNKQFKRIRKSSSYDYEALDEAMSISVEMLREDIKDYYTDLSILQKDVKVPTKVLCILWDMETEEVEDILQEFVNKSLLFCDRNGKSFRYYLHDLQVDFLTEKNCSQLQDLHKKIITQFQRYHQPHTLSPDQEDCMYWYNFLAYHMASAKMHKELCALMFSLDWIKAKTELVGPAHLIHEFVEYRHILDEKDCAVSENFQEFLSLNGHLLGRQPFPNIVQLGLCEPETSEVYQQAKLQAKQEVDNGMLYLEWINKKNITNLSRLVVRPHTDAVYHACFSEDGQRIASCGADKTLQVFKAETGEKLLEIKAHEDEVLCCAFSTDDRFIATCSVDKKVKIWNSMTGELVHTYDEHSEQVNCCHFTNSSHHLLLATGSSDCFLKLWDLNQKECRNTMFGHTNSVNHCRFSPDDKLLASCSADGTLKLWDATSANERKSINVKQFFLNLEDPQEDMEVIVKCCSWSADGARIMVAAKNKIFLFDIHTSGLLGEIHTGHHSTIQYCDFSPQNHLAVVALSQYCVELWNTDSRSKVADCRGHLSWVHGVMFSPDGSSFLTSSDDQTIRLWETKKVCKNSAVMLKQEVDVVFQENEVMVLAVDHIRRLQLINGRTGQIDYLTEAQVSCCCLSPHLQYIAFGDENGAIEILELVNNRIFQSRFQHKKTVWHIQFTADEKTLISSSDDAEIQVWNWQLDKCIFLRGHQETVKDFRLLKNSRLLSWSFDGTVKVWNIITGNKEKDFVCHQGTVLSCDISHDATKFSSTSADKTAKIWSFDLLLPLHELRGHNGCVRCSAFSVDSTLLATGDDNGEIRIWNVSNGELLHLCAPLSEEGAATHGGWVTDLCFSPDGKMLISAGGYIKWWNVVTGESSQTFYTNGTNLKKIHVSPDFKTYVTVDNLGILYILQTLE

[3] = target: T3, Microphthalmia-associated transcription factor (Homo sapiens, UniProt O75030); experiment: reducers of TRPM1 reporter luminescence, concentration series – cell-based, SK-MEL-5, cherry-picked, set 3, MITF inhibitor project, dose response (AID 493073); type: functional;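 also: SK-MEL-5 melanoma cells with luciferase driven by the MITF target TRPM1 promoter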
T3 sequence (O75030 whole entry): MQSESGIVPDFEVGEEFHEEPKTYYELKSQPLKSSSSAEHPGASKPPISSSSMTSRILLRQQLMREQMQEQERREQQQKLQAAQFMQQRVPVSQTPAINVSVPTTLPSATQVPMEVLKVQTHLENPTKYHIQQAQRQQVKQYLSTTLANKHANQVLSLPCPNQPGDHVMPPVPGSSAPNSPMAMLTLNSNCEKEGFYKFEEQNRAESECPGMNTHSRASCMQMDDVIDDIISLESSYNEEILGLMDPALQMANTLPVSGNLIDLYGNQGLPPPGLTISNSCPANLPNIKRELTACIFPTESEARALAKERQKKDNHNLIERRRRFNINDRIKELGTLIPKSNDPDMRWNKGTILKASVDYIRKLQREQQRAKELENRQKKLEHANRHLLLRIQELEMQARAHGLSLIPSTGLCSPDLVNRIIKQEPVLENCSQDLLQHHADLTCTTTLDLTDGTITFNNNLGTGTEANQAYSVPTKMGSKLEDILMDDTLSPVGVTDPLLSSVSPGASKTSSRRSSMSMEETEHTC

[4] = target: T4, Replicative DNA helicase DnaB (Mycobacterium tuberculosis, UniProt P9WMR3); experiment: DnaB intein splicing inhibitors, dose response, biochemical, cell-free fluorescence (AID 449749); type: functional
T4 sequence (P9WMR3 whole entry): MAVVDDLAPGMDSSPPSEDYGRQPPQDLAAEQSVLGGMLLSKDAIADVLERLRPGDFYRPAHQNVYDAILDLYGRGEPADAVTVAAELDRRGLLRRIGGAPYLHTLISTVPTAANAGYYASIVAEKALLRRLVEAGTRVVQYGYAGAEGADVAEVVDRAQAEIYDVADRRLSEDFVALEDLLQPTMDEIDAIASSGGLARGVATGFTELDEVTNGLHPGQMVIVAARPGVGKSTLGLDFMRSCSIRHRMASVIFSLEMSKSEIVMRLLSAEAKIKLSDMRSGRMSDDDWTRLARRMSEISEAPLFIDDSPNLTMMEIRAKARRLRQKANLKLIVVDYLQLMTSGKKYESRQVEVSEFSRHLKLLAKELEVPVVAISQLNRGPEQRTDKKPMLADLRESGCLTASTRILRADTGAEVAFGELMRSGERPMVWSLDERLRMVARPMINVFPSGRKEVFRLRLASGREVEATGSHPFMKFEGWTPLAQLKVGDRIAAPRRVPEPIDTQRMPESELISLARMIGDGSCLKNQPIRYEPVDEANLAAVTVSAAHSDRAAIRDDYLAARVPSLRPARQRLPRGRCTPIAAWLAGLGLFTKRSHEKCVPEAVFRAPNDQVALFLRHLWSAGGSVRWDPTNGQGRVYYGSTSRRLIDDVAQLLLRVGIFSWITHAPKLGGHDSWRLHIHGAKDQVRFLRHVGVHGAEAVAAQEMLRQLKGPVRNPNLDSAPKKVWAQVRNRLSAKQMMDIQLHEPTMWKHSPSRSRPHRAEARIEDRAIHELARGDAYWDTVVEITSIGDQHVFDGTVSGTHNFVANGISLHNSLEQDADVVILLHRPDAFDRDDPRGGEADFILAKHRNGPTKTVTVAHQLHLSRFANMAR

[5] = test system: INS1; experiment: INS-1E survival protection against cytokine death – cell-based, luminescence, retest, dose response (AID 449756); type: functional; conditions: Rattus norvegicus;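 also: cell death triggered by IL-1 beta plus TNF-alpha plus IFN-gamma mixture; protective hits raise ATP signal compared with cytokine alone wells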
[6] = target: T5, Endoribonuclease toxin MazF (Escherichia coli K-12, UniProt P0AE70); experiment: substrate-only fluorescence increase artefacts – biochemical, single-stranded RNase substrate, counter-screen for MazEF activator project, dose response (AID 588502); type: functional
T5 sequence (P0AE70 whole entry): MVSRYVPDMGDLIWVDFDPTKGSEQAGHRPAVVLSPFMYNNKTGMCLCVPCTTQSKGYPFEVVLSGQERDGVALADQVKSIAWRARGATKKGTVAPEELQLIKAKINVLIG

[7] = target: T5, Endoribonuclease toxin MazF; experiment: activation of MazEF endoribonuclease cleavage – biochemical, fluorescence, single-stranded RNA substrate, uHTS hits, dose response (AID 588481); type: functional
[8] = target: ATP-dependent molecular chaperone HSP82 (Candida albicans (strain WO-1) (Yeast), UniProt C4YTQ8); experiment: steroid-induced GRE reporter decrease in yeast – S. cerevisiae, luminescence, Hsp90 inhibitor project, dose response (AID 2400); type: functional, cell-based;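 also: beta-galactosidase luminescence from glucocorticoid response element reporter as proxy for Hsp90 function; inhibitor potency where signal loss means Hsp90 inhibition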
[9] = target: T6, Serine/threonine-protein phosphatase (Candida dubliniensis (strain CD36 / CBS 7987 / NCPF 3949 / NRRLY-17841) (Yeast), UniProt B9W6M3); experiment: blockers of CaCl2-induced CDRE-lacZ signaling – S. cerevisiae, luminescence, secondary, dose response (AID 2388); type: functional, cell-based;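 also: yeast reporter cells carrying a calcineurin-responsive lacZ construct stimulated with calcium chloride; luminescent beta-galactosidase reporter signal in whole cells rather than isolated phosphatase activity; potency for inhibition where a drop in reporter signal means calcineurin blockade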
T6 sequence (B9W6M3 whole entry): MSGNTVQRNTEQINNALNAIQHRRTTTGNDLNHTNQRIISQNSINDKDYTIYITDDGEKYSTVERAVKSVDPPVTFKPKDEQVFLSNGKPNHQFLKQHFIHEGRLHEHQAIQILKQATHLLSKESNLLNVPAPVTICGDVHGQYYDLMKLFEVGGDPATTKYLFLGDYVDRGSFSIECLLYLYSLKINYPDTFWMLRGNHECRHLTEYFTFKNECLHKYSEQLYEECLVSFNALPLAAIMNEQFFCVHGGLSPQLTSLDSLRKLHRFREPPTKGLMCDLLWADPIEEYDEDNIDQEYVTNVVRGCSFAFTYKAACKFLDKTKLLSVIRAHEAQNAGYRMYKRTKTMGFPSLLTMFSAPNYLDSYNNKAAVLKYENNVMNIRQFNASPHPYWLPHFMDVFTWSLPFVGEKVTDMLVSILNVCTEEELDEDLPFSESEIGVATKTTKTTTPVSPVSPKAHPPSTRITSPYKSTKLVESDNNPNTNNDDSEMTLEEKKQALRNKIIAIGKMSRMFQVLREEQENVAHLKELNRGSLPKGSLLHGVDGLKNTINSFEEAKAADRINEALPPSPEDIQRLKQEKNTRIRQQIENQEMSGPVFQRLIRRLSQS

[10] = NIH-3T3 fibroblast cytotoxicity, dose response, cytotoxicity control, cell-based, fluorescence, Alamar Blue, secondary assay (AID 2327); type: functional;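 also: NIH-3T3 mouse fibroblasts cultured with fluconazole at 8 µg/mL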
[11] = fluconazole-exposed Candida albicans growth modulators – fluorescence, retest, confirmation (AID 2467); type: functional, cell-based

Chain of ATP-dependent molecular chaperone HSP82 (C4YTQ8 whole entry): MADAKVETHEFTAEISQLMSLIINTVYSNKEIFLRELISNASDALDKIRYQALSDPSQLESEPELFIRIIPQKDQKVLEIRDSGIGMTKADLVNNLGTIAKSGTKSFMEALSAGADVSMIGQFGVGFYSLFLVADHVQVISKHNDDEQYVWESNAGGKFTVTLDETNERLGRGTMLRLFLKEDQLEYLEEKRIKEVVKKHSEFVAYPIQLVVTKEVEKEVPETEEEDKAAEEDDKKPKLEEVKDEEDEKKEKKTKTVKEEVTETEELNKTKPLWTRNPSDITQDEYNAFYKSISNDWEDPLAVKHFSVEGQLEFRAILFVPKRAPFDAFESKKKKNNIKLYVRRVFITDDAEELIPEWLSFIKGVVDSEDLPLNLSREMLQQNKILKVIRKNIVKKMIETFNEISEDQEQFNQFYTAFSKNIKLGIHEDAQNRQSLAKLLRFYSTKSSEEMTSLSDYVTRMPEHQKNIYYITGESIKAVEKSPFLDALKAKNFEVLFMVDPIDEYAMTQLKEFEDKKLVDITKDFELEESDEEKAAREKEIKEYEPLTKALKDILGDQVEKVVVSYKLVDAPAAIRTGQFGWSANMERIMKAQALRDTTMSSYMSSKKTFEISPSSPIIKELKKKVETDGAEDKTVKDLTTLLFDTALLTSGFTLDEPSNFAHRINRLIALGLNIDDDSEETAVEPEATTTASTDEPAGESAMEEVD

| Structure (SMILES) | EC50 [1] | IC50 [2] | AC50 [4] | EC50 [8] | EC50 [9] | EC50 [10] | EC50 [11] | other results |
| --- | --- | --- | --- | --- | --- | --- | --- | --- |
| O=C(NC1=C(Nc2ccc(Cl)cc2)C(=O)c2ccccc2C1=O)c1ccccc1 | 6.55 µM (active) | 39.7 µM (active) | 10.4 µM (active) | – | – | – | – | AC50 [3]: 0.93 µM (active); AC50 [5]: 6.9 µM (active) |
| COC(=O)C1=C(C)N(Cc2ccco2)C(=O)/C1=C\c1ccc(N(C)C)cc1 | – | – | – | – | – | – | – | EC50 [6]: 37.5 µM (inactive); EC50 [7]: 10.7 µM (active) |
| CCc1nnc(NC(=O)CN2CCN(c3nc(-c4ccccc4)cs3)CC2)s1 | – | – | – | > 150 µM (inactive) | > 180 µM (inactive) | > 150 µM (inconclusive) | 1.18 µM (active) | – |
| CCN=C(S)NNC(=O)c1cc(-c2ccccc2C)nc2ccccc12 | – | – | – | > 160 µM (inactive) | > 180 µM (inactive) | > 160 µM (inactive) | 0.931 µM (active) | – |
| CCOc1cc(CNc2ccc3c[nH]nc3c2)ccc1OC | 7.37 µM (active) | 25.2 µM (active) | > 380 µM (inactive) | – | – | – | – | – |
